Laboratory results taken from patent US9695155B2, “Herbicidal substituted pyrimidinyloxy benzene compounds” (E. I. DU PONT DE NEMOURS AND COMPANY, priority 2013, dated 2017).

Columns and labels:
giant foxtail [1] = test: Test A postemergence; format: in vivo, Setaria faberii; settings: 0 to 100 scale where 0 is no effect and 100 is complete control
In short: (§1)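 Compounds in non-phytotoxic solvent with surfactant applied as soil spray preemergence, or postemergence to plants 2-10 cm at one- to two-leaf stage, in loam/sand. After approximately 10 days in greenhouse, injury rated visually versus untreated controls, 0 (no effect) to 100 (complete control).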

corn [2] = test: Test A postemergence; format: in vivo, Zea mays; settings: 0 to 100 scale where 0 is no effect and 100 is complete control
In short: as §1

corn [3] = test: Test C preemergence; format: in vivo, Zea mays
In short: (§2)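 Rated visually on 0–100 (100 = complete control) after 13–15 days under glass. Treatments went onto freshly seeded loam/sand soil or onto emerged plants at the 1- to 4-leaf stage, using a surfactant-containing solvent formulation.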

large (Lg) crabgrass = test: Test C preemergence; format: in vivo, Digitaria sanguinalis
In short: as §2

lambsquarters = test: Test C preemergence; format: in vivo, Chenopodium album; settings: preemergence
In short: as §2

pigweed = test: Test C preemergence; format: in vivo, Amaranthus retroflexus; settings: preemergence
In short: as §2

blackgrass = test: Test C postemergence; format: in vivo, Alopecurus myosuroides
In short: as §2

wheat, winter = test: Test C postemergence; format: in vivo, Triticum aestivum
In short: as §2

corn [4] = test: Test C postemergence; format: in vivo, Zea mays
In short: as §2

giant foxtail [5] = test: Test C postemergence; format: in vivo, Setaria faberii
In short: as §2

yellow nutsedge = test: Test C postemergence; format: in vivo, Cyperus esculentus
In short: as §2

barnyardgrass = test: Test C postemergence; format: in vivo, Echinochloa crus-galli
In short: as §2

kochia = test: Test C postemergence; format: in vivo, Kochia scoparia
In short: as §2

[6] = 16 g ai/ha, preemergence, scale 0 to 100 (0 no effect, 100 complete control)
[7] = 62 g ai/ha, preemergence, scale 0 (no effect) to 100 (complete control)
[8] = 125 g ai/ha, preemergence, scale 0 (no effect) to 100 (complete control)
[9] = Preemergence, 31 g ai/ha, scale 0 to 100, 0 no effect, 100 complete control
[10] = 16 g ai/ha, scale 0 to 100 (0 no effect, 100 complete control)
[11] = 62 g ai/ha, scale 0 (no effect) to 100 (complete control)
[12] = 125 g ai/ha, scale 0 (no effect) to 100 (complete control)
[13] = 16 g ai/ha, postemergence, 0 is no effect, 100 is complete control
[14] = 31 g ai/ha, postemergence, visual rating, scale 0 to 100 (0 no effect, 100 complete control), 13 to 15 days
[15] = 125 g ai/ha, postemergence, visual rating, scale 0 to 100 (0 no effect, 100 complete control)
[16] = Postemergence, 62 g ai/ha, scale 0 to 100 (0 no effect, 100 complete control)

FC(F)(F)COc1cnn(-c2ccccc2Oc2ncc(Cl)cn2)c1 [Compound 138, 5-chloro-2-[2-[4-(2,2,2-trifluoroethoxy)-1H-pyrazol-1-yl]phenoxy]pyrimidine]
pest or weed control at 125 g/ha (giant foxtail [1]; Setaria faberi, post-emergence, 240 h, 125 g ai/ha, read-out: Foxtail, Giant plant response rating): 90%
pest or weed control at 500 g/ha (giant foxtail [1]; Setaria faberi, post-emergence, 240 h, 500 g ai/ha, read-out: Plant response rating, Foxtail, Giant): 100%
plant injury at 125 g/ha (corn [2]; Zea mays, post-emergence, 240 h, 125 g ai/ha, read-out: Corn plant response rating): 60%
Corn plant response rating (crop injury, 0 = no effect, 100 = complete kill) at 500 g/ha (corn [2]; Zea mays, post-emergence, 240 h, 500 g ai/ha): 90%
plant injury at 16 g/ha (corn [3]; Zea mays, pre-emergence, 16 g ai/ha, preemergence, scale 0 to 100 (0 no effect, 100 complete control), read-out: Corn plant response rating): 0%
plant injury at 62 g/ha (corn [3]; Zea mays, pre-emergence, 62 g ai/ha, preemergence, scale 0 (no effect) to 100 (complete control), read-out: Corn plant response rating): 0%
plant injury at 125 g/ha (corn [3]; Zea mays, pre-emergence, 125 g ai/ha, preemergence, scale 0 (no effect) to 100 (complete control), read-out: Corn plant response rating): 25%
Corn plant response rating (crop injury, 0 = no effect, 100 = complete kill) at 31 g/ha (corn [3]; Zea mays, pre-emergence, Preemergence, 31 g ai/ha, scale 0 to 100, 0 no effect, 100 complete control): 0%
pest or weed control at 16 g/ha (large (Lg) crabgrass; Digitaria sanguinalis, pre-emergence, 16 g ai/ha, preemergence, scale 0 to 100 (0 no effect, 100 complete control), read-out: Crabgrass, Large plant response rating): 100%
pest or weed control at 62 g/ha (large (Lg) crabgrass; Digitaria sanguinalis, pre-emergence, 62 g ai/ha, preemergence, scale 0 (no effect) to 100 (complete control), read-out: Crabgrass, Large plant response rating): 100%
pest or weed control at 125 g/ha (large (Lg) crabgrass; Digitaria sanguinalis, pre-emergence, 125 g ai/ha, preemergence, scale 0 (no effect) to 100 (complete control), read-out: Crabgrass, Large plant response rating): 100%
pest or weed control at 31 g/ha (large (Lg) crabgrass; Digitaria sanguinalis, pre-emergence, Preemergence, 31 g ai/ha, scale 0 to 100, 0 no effect, 100 complete control, read-out: Plant response rating, Crabgrass, Large): 90%
pest or weed control at 16 g/ha (lambsquarters; Chenopodium album, pre-emergence, 16 g ai/ha, scale 0 to 100 (0 no effect, 100 complete control), read-out: Lambsquarters plant response rating): 100%
pest or weed control at 62 g/ha (lambsquarters; Chenopodium album, pre-emergence, 62 g ai/ha, scale 0 (no effect) to 100 (complete control), read-out: Lambsquarters plant response rating): 100%
pest or weed control at 125 g/ha (lambsquarters; Chenopodium album, pre-emergence, 125 g ai/ha, scale 0 (no effect) to 100 (complete control), read-out: Lambsquarters plant response rating): 100%
pest or weed control at 16 g/ha (pigweed; Amaranthus retroflexus, pre-emergence, 16 g ai/ha, scale 0 to 100 (0 no effect, 100 complete control), read-out: Pigweed plant response rating): 85%
pest or weed control at 62 g/ha (pigweed; Amaranthus retroflexus, pre-emergence, 62 g ai/ha, scale 0 (no effect) to 100 (complete control), read-out: Pigweed plant response rating): 100%
pest or weed control at 125 g/ha (pigweed; Amaranthus retroflexus, pre-emergence, 125 g ai/ha, scale 0 (no effect) to 100 (complete control), read-out: Pigweed plant response rating): 100%
pest or weed control at 16 g/ha (blackgrass; Alopecurus myosuroides, post-emergence, 16 g ai/ha, postemergence, 0 is no effect, 100 is complete control, read-out: Plant response rating (0 to 100), Blackgrass): 0%
pest or weed control at 125 g/ha (blackgrass; Alopecurus myosuroides, post-emergence, 125 g ai/ha, postemergence, visual rating, scale 0 to 100 (0 no effect, 100 complete control), read-out: Plant response rating, Blackgrass): 10%
pest or weed control at 31 g/ha (blackgrass; Alopecurus myosuroides, post-emergence, Postemergence, 31 g ai/ha, scale 0 to 100 (0 no effect, 100 complete control), 13 to 15 days, read-out: Plant response rating, Blackgrass): 5%
pest or weed control at 62 g/ha (blackgrass; Alopecurus myosuroides, post-emergence, Postemergence, 62 g ai/ha, scale 0 to 100 (0 no effect, 100 complete control), read-out: Plant response rating, Blackgrass): 5%
plant injury at 16 g/ha (wheat, winter; Triticum aestivum, post-emergence, 16 g ai/ha, postemergence, 0 is no effect, 100 is complete control, read-out: Plant response rating (0 to 100), Wheat): 0%
plant injury at 125 g/ha (wheat, winter; Triticum aestivum, post-emergence, 125 g ai/ha, postemergence, visual rating, scale 0 to 100 (0 no effect, 100 complete control), read-out: Plant response rating, Wheat): 5%
plant injury at 62 g/ha (wheat, winter; Triticum aestivum, post-emergence, Postemergence, 62 g ai/ha, scale 0 to 100 (0 no effect, 100 complete control), read-out: Plant response rating, Wheat): 0%
plant injury at 16 g/ha (corn [4]; Zea mays, post-emergence, 16 g ai/ha, postemergence, 0 is no effect, 100 is complete control, read-out: Plant response rating (0 to 100), Corn): 5%
Corn plant response rating (crop injury, 0 = no effect, 100 = complete kill) at 125 g/ha (corn [4]; Zea mays, post-emergence, 125 g ai/ha, postemergence, visual rating, scale 0 to 100 (0 no effect, 100 complete control)): 10%
Corn plant response rating (crop injury, 0 = no effect, 100 = complete kill) at 62 g/ha (corn [4]; Zea mays, post-emergence, Postemergence, 62 g ai/ha, scale 0 to 100 (0 no effect, 100 complete control)): 5%
pest or weed control at 16 g/ha (giant foxtail [5]; Setaria faberi, post-emergence, 16 g ai/ha, postemergence, 0 is no effect, 100 is complete control, read-out: Plant response rating (0 to 100), Foxtail, Giant): 5%
pest or weed control at 125 g/ha (giant foxtail [5]; Setaria faberi, post-emergence, 125 g ai/ha, postemergence, visual rating, scale 0 to 100 (0 no effect, 100 complete control), read-out: Plant response rating, Foxtail, Giant): 50%
pest or weed control at 62 g/ha (giant foxtail [5]; Setaria faberi, post-emergence, Postemergence, 62 g ai/ha, scale 0 to 100 (0 no effect, 100 complete control), read-out: Plant response rating, Foxtail, Giant): 10%
pest or weed control at 16 g/ha (yellow nutsedge; Cyperus, post-emergence, 16 g ai/ha, postemergence, 0 is no effect, 100 is complete control, read-out: Plant response rating (0 to 100), Nutsedge, Yellow): 0%
pest or weed control at 125 g/ha (yellow nutsedge; Cyperus, post-emergence, 125 g ai/ha, postemergence, visual rating, scale 0 to 100 (0 no effect, 100 complete control), read-out: Plant response rating, Nutsedge, Yellow): 10%
pest or weed control at 62 g/ha (yellow nutsedge; Cyperus, post-emergence, Postemergence, 62 g ai/ha, scale 0 to 100 (0 no effect, 100 complete control), read-out: Plant response rating, Nutsedge, Yellow): 5%
pest or weed control at 16 g/ha (barnyardgrass; Echinochloa crus-galli, post-emergence, 16 g ai/ha, postemergence, 0 is no effect, 100 is complete control, read-out: Plant response rating (0 to 100), Barnyardgrass): 5%
pest or weed control at 125 g/ha (barnyardgrass; Echinochloa crus-galli, post-emergence, 125 g ai/ha, postemergence, visual rating, scale 0 to 100 (0 no effect, 100 complete control), read-out: Plant response rating, Barnyardgrass): 5%
pest or weed control at 31 g/ha (barnyardgrass; Echinochloa crus-galli, post-emergence, Postemergence, 31 g ai/ha, scale 0 to 100 (0 no effect, 100 complete control), 13 to 15 days, read-out: Plant response rating, Barnyardgrass): 5%
pest or weed control at 62 g/ha (barnyardgrass; Echinochloa crus-galli, post-emergence, Postemergence, 62 g ai/ha, scale 0 to 100 (0 no effect, 100 complete control), read-out: Plant response rating, Barnyardgrass): 5%
pest or weed control at 16 g/ha (kochia; Bassia scoparia, post-emergence, 16 g ai/ha, postemergence, 0 is no effect, 100 is complete control, read-out: Plant response rating (0 to 100), Kochia): 80%
pest or weed control at 125 g/ha (kochia; Bassia scoparia, post-emergence, 125 g ai/ha, postemergence, visual rating, scale 0 to 100 (0 no effect, 100 complete control), read-out: Plant response rating, Kochia): 95%
pest or weed control at 62 g/ha (kochia; Bassia scoparia, post-emergence, Postemergence, 62 g ai/ha, scale 0 to 100 (0 no effect, 100 complete control), read-out: Plant response rating, Kochia): 95%

CCCOc1cnn(-c2c(C#N)cccc2Oc2ncc(Cl)cn2)c1 [Compound 150]
Foxtail, Giant plant response rating (giant foxtail [1]; 125 g ai/ha): 100
Plant response rating, Foxtail, Giant (giant foxtail [1]; 500 g ai/ha): 100
Corn plant response rating (corn [2]; 125 g ai/ha): 50
Plant response rating, Corn (corn [2]; 500 g ai/ha): 90
Corn plant response rating (corn [3]; [6]): 0
Corn plant response rating (corn [3]; [7]): 25
Corn plant response rating (corn [3]; [8]): 45
Plant response rating, Corn (corn [3]; [9]): 0
Crabgrass, Large plant response rating (large (Lg) crabgrass; [6]): 70
Crabgrass, Large plant response rating (large (Lg) crabgrass; [7]): 100
Crabgrass, Large plant response rating (large (Lg) crabgrass; [8]): 100
Plant response rating, Crabgrass, Large (large (Lg) crabgrass; [9]): 98
Lambsquarters plant response rating (lambsquarters; [10]): 10
Lambsquarters plant response rating (lambsquarters; [11]): 80
Lambsquarters plant response rating (lambsquarters; [12]): 100
Pigweed plant response rating (pigweed; [10]): 55
Pigweed plant response rating (pigweed; [11]): 100
Pigweed plant response rating (pigweed; [12]): 100
Plant response rating (0 to 100), Blackgrass (blackgrass; [13]): 5
Blackgrass plant response rating (blackgrass; [14]): 5
Plant response rating, Blackgrass (blackgrass; [15]): 10
Plant response rating, Blackgrass (blackgrass; [16]): 10
Plant response rating (0 to 100), Wheat (wheat, winter; [13]): 5
Wheat plant response rating (wheat, winter; [14]): 5
Plant response rating, Wheat (wheat, winter; [15]): 25
Plant response rating, Wheat (wheat, winter; [16]): 5
Plant response rating (0 to 100), Corn (corn [4]; [13]): 5
Corn plant response rating (corn [4]; [14]): 10
Plant response rating, Corn (corn [4]; [15]): 10
Plant response rating, Corn (corn [4]; [16]): 10
Plant response rating (0 to 100), Foxtail, Giant (giant foxtail [5]; [13]): 5
Foxtail, Giant plant response rating (giant foxtail [5]; [14]): 20
Plant response rating, Foxtail, Giant (giant foxtail [5]; [15]): 25
Plant response rating, Foxtail, Giant (giant foxtail [5]; [16]): 20
Plant response rating (0 to 100), Nutsedge, Yellow (yellow nutsedge; [13]): 0
Nutsedge, Yellow plant response rating (yellow nutsedge; [14]): 0
Plant response rating, Nutsedge, Yellow (yellow nutsedge; [15]): 5
Plant response rating, Nutsedge, Yellow (yellow nutsedge; [16]): 15
Plant response rating (0 to 100), Barnyardgrass (barnyardgrass; [13]): 5
Barnyardgrass plant response rating (barnyardgrass; [14]): 5
Plant response rating, Barnyardgrass (barnyardgrass; [15]): 5
Plant response rating, Barnyardgrass (barnyardgrass; [16]): 5
Plant response rating (0 to 100), Kochia (kochia; [13]): 50
Kochia plant response rating (kochia; [14]): 55
Plant response rating, Kochia (kochia; [15]): 85
Plant response rating, Kochia (kochia; [16]): 55
